# Experimental data: patent publication US20220331445A1, “HIGH DENSITY LIPOPROTEIN-LIKE NANOPARTICLES AS INDUCERS OF FERROPTOSIS IN CANCER” (Northwestern University, priority 2019, published 2022)
# What was measured:
# OVCAR5 cell line = assay: MTS cell death / rescue assay in OVCAR5 cells; format: cell-based; conditions: OVCAR5 cells with HDL NPs
# [1] = tested on: 769-P, a clear cell renal carcinoma cell line; assay: MTS cell death / rescue assay in 769-P cells; format: cell-based; conditions: 769-P cells with HDL NPs
# SUDHL4 cells = assay: Cell death (MTS) assay in SUDHL4 cells; format: cell-based, human; conditions: SUDHL4 cells cultured with HDL NPs; inhibitor added at 1 μM
# Method: (§1) MTS assays (CellTiter; Promega) were conducted as described previously. For the Ramos, SUDHL4, Raji, Daudi, Namalwa, SUDHL6 and Jurkat cells were plated at a density of 2×10^5 cells/mL, and cultured for 72 hours prior to assay. SUDHL1, SR-786, and U937 cells were plated at a density of 5×10^4 cells/mL and cultured for 5 days prior to MTS assay. The SCARB1 blocking and isotype control antibodies were added at a dilution of 1:1000 to 1:250. Ferrostatin-1 and deferoxamine (DFO) were obtained from Sigma Aldrich, and added at a final concentration of 1 μM. MTS values were standardized to PBS control.
# [2] = tested on: OVCAR5 CP Resistant Cell Line; assay: MTS cell death / rescue assay in OVCAR5 CP Resistant cells; format: cell-based; conditions: OVCAR5 CP Resistant cells with HDL NPs
# Ramos cells = assay: Cell death (MTS) assay in Ramos cells; format: cell-based, human; conditions: Ramos cells cultured with HDL NPs; inhibitor added at 1 μM
# Method: as §1
# [3] = tested on: 786-O (renal cell carcinoma-clear cell) cells; assay: MTS cell death / rescue assay in 786-O cells; format: cell-based; conditions: 786-O cells with HDL NPs
smiles,measurement,setting,value
CCOC(=O)c1ccc(NC2CCCCC2)c(N)c1 [ferrostatin-1],effect on cell death induced by HDL NPs (MTS),OVCAR5 cell line,rescued
same,effect on cell death induced by HDL NPs (MTS),[1],rescued
same,effect on HDL NP induced cell death,SUDHL4 cells,significantly inhibited
same,effect on cell death induced by HDL NPs (MTS),[2],rescued
same,effect on HDL NP induced cell death,Ramos cells,significantly inhibited
same,effect on cell death induced by HDL NPs (MTS Rescue Assay),[3],rescued
same,effect on cell death induced by HDL NPs (MTS Rescue Assay),[3]; listed as Ferrostatin-1,dramatic effects
